Holding throughout (assay type): cell-based, human
In test [1] the test system is cleaved PARP and cleaved Caspase 3. The experiment in a line: Western blot of apoptotic markers. Particulars: compared to WS6 treatment at IC50 concentration; no changes in Bcl-2 or Bax. How it is done:
Protein was extracted from cell pellets using RIPA buffer (Sigma) with 10% protease inhibitor (Sigma, Sydney, Australia). Quantification of proteins was conducted using Pierce BCA protein assay kit (Thermo Scientific), according to manufacturer’s instructions. A total of 30–50 μg protein samples were loaded onto Criterion TGX 10% precast gel (Bio-Rad) or NuPAGE™ 4–12% Mini Protein Gel (Invitrogen, Life technologies) and transferred to a nitrocellulose membrane (Bio-Rad). […] Quantification of protein expression was measured by Image Lab software (Bio-Rad) and normalised to loading control.
(§1) To determine if the drug effects led to apoptosis, we stained cells with annexin-V/7-AAD, a marker of early and late apoptotic events (Figure 2D). […] To confirm the apoptotic status of the cells, protein expression of key apoptotic markers PARP/Cleaved PARP, Caspase 3/Cleaved caspase 3, BCL2, and Bax was measured (Figure 2E).
On the technique in general: A western blot detects proteins with antibodies after separation by electrophoresis.

For a further test, the system named is neuroblastoma cells. The experiment in a line: Annexin V/7-AAD flow cytometry apoptosis assay. Particulars: 48 h treatment. How it is done:
Neuroblastoma cell lines were seeded 24 h before treating with #5333 or #5338 for 48 h. The apoptotic and necrotic effects of the #5333 and #5338 treatment were determined by staining the cells with Annexin V PE/7-AAD using the Annexin V: PE Apoptosis Detection Kit (BD Biosciences, North Ryde, NSW, Australia), according to the manufacturer’s instruction. Stained cells were measured by flow cytometry using the BD LSRFortessa (BD Biosciences, NSW, Australia) and the data was analysed using the FlowJo software.
as §1

A further test deals with SHEP MYCN3 cells. The test is described as follows: Alamar Blue viability, SHEP MYCN3 cells with Dox-inducible MYCN induction. Particulars: Dox-induced MYCN expression, 72 h treatment, compared with DMSO treated controls and WS6. The source says: The MYCN amplified neuroblastoma cell line SK-N-BE(2)-C was kindly provided by Professor June Biedler (Memorial Sloan Kettering Cancer Centre, New York, NY, USA), and Kelly was obtained from European Collection of Cell Cultures. The two normal lung fibroblast cell lines (MRC-5 and WI-38) were purchased from ATCC. SK-N-BE(2)-C shMYCN#2 doxycycline-inducible cell and Kelly shMYCN#2 doxycycline-inducible cell were custom-made by GenScript (Piscataway, NJ, USA). SK-N-BE(2)-C, SK-N-BE(2)-C shMYCN#2, and SHEP MYCN3 doxycycline-inducible cells were maintained in Dulbecco’s modified Eagle’s medium (DMEM) (Invitrogen, Life Technologies, Waltham, MA, USA) with 10% foetal calf serum (FCS). […]
Cell viability was determined by the Alamar Blue assay (75 mg resazurin, 12.5 mg methylene blue, 164.5 mg potassium hexacyanoferrate (III), 211 mg potassium hexacyanoferrate (II) trihydrate in 500 mL of phosphate buffered saline). After 6 h incubation with Alamar Blue, the change of fluorescence was measured by Victor 3 multilabel Plate Reader (Perkin Elmer Australia, Melburne, Australia) at an excitation wavelength of 560 nm and an emission wavelength of 590 nm.
Next, we examined whether #5333 and #5338 treatment for 48 h affected the levels of WS6 target proteins, PA2G4, and MYCN in neuroblastoma cells. […] Cell viability was measured following #5333 and #5338 treatments for 48–72 h. […]

For test [2], the system named is neuroblastoma cells (Kelly and SK-N-BE(2)-C). The test is described as follows: BrdU cell proliferation assay. Particulars: 30 μM drug treatment for 48 h. As for the experimental part:
Cells were seeded in 96-well plates the day before and then treated with #5333 and #5338 for […]. Cell proliferation was measured using the BrdU ELISA kit (Roche, Millers Point, Australia), according to the manufacturer’s instructions. 10 μM BrdU was added to media and incubated at 37 °C in 5% CO2 for 2 h. Cells were fixed with supplied fixing solution for 30 min and then blocked with 10% FCS in PBS for 10 min. Peroxidase-conjugated anti-BrdU (1:100) was added and incubated for 90 min at room temperature. After washing with PBS for three times, peroxidase substrate was added to the cells. Changes in cell proliferation were calculated from the absorbance readings at 370 nm (495 nm reference wavelength) on the Benchmark Plus microplate reader (Bio-Rad).
We treated human neuroblastoma tumour cell lines with high MYCN and PA2G4 expression (Kelly and SK-N-BE(2)-C), using increasing concentrations of #5333 or #5338, and measured the ability of cells to proliferate and form colonies in vitro over 2 weeks. […] Next, we evaluated cell replication using the BrdU uptake assay in response to 30 μM drug treatment for 48 h (Figure 2C).

We go through 2 compounds from PMC10046377, “Inhibitors of the Oncogenic PA2G4-MYCN Protein-Protein Interface” (Cancers, 2023).

Regarding `Cc1cccc(Oc2cc(N3CCC(C(=O)NCc4cccc(Br)c4)CC3)ncn2)c1C` [#5333], the “expression of cleaved PARP and cleaved Caspase 3” value in test [1] is recorded as “increased”. In addition, in the test with neuroblastoma cells, the “apoptosis (annexin-V/7-AAD)” value is given as “caused similar levels of apoptosis”. For the same compound, in the test on SHEP MYCN3 cells, the “change of IC50 on MYCN induction, SHEP MYCN3” value is recorded as “significant decrease in IC50”. Further, the “cell proliferation (BrdU uptake)” value in test [2] is “significantly reduced”.

Consider `Cc1cccc(Oc2cc(N3CCC(C(=O)N[C@@H](C)CCc4ccccc4)CC3)ncn2)c1C` [#5338], for which the “expression of cleaved PARP and cleaved Caspase 3” value in test [1] is “increased”. In addition, the “apoptosis (annexin-V/7-AAD)” value in the test with neuroblastoma cells is “caused similar levels of apoptosis”. Besides, in the test on SHEP MYCN3 cells, the “change of IC50 on MYCN induction, SHEP MYCN3” value is “significant decrease in IC50”. Further, in test [2], the “cell proliferation (BrdU uptake)” value is listed as “significantly reduced”.
